# Test results reported in PMC8071435, “Amorphous Solid Dispersion Tablets Overcome Acalabrutinib pH Effect in Dogs” (Pharmaceutics, 2021).
# Read-outs that look alike come from different tables or passages of the source. Marks after values point to notes of the source that are not given here.
# Legend:
# [1] = set-up: method as in PMID 31306750; conditions: cited from earlier work
# [2] = tested on: CYP3A4; set-up: method as in PMID 31306750; conditions: humans; cited from earlier work
# [3] = set-up: method as in PMID 31306750; conditions: humans; cited from earlier work
# [4] = Chemical stability: total impurities (total related substances) by RP-HPLC after storage; format: physicochemical; conditions: 40 °C/75% RH/open, perforated seal
# Experimental: The ASD was stored at 40 °C/75% relative humidity (RH) to assess physical and chemical stability under accelerated storage conditions. Initial ASD samples and aged ASDs were analyzed for crystallinity using PXRD, thermal properties using mDSC, changes in morphology or presence of surface crystals using SEM, and chemical degradation by reverse-phase high-performance liquid chromatography (RP-HPLC). The ASD and ASD tablets were stored at ambient and refrigerated conditions to assess the chemical stability at nonaccelerated conditions. Initial and aged ASD samples were analyzed for total related substances using RP-HPLC. See Appendix A.3 for method details.
# ASD and ASD tablet samples were analyzed for total related substances using RP-HPLC using a Waters XBridge C8 (150 × 3 mm, 3.5 µm pores) column (Waters Corporation, Milford, MO, USA) at a temperature of 40 °C. Mobile phase was pumped into the column at a flow rate of 0.7 mL/min using a gradient method. 10 mM ammonium acetate was used as mobile phase A and methanol was used as mobile phase B supplied according to the following sequence: 0 min: 20% B, 30 min: 70% B, 40 min: 70% B, 41 min: 20% B, […]. Samples were diluted with 8/2 (v/v) methanol/water and injection volume was 5 µL. The sample tray was held at uncontrolled room temperature. Analysis wavelength was 230 nm and 4 nm bandwidth.
# The ASD was stored at 40 °C/75% relative humidity (RH) to assess physical and chemical stability when stored under accelerated conditions. Approximately 100 mg of ASD was placed in a single 4 mL glass vial, with enough glass vials prepared for each storage condition, timepoint and replicate. […] Initial ASD samples and aged ASDs were analyzed for crystallinity using SEM and PXRD, thermal properties using mDSC (in triplicate) and total related substances using RP-HPLC (duplicate analysis).
# Additional ASD samples were stored at ambient and refrigerated conditions to assess the chemical stability upon storage at nonaccelerated conditions. […] Initial and aged ASD samples were analyzed for total related substances using RP-HPLC (duplicate analysis). […]
# [5] = set-up: method as in PMID 31306750; conditions: cited from earlier work; remark: listed apart in the source
# [6] = set-up: method as in PMID 31306750; conditions: cited from earlier work; remark: listed apart in the source
compound,measurement,setting,value
CC#CC(=O)N1CCC[C@H]1c1nc(-c2ccc(C(=O)Nc3ccccn3)cc2)c2c(N)nccn12 [acalabrutinib],pKas in physiological range,[1]; higher basic pKa,5.8
same,pKas in physiological range,[1]; lower basic pKa,3.5
same,Fraction metabolized by CYP3A4 in the gut,[2],approximately 50%
same,Fraction metabolized by first-pass liver extraction,[3],50%
same,Total impurities after 4 wk,[4]; 4 wk,0.70 ± 0.04 area%
same,Total impurities after 12 wk,[4]; 12 wk,0.94 ± 0.05 area%
same,"Total impurities, initial",[4]; initial (different ASD batch),0.59 ± 0.00 area%
same,log P,[5],2.0 ^a
same,Crystalline intrinsic solubility,[6],48 ^a µg/mL
